{"source": "patent US11986465B1", "about": "“2-amino-4-(4-bromophenyl)-6-ethoxypyridine-3,5-dicarbonitrile as an antibacterial compound” (KING FAISAL UNIVERSITY, priority 2023, dated 2024)", "type_in_all_cases": "cell-based", "key": {"Escherichia coli": {"system": "Escherichia coli", "test": "Agar plate disc-diffusion antibacterial test, Escherichia coli", "settings": "Gram negative", "procedure": "(§1) The agar plate disc-diffusion method was applied. […] The discs were then placed onto the surface of agar plates (nutrient agar for bacteria) seeded with the test organism. Each plate contained 15 mL of the agar medium, previously seeded with 0.2 mL of the broth culture of each organism pregrown for 18 hours. The inhibition zones were measured in millimeters (mm). Discs impregnated with DMSO were used as a control, and its inhibition zone was subtracted from the tested compound's actual inhibition zone.\n(§2) The antibacterial activity was screened against gram positive bacteria namely Bacillus cereus and Staphylococcus aureus and gram-negative bacterial strains namely Pseudomonas aeruginosa and Escherichia coli using ciprofloxacin as a reference, as shown in Table 1."}, "Staphylococcus aureus": {"system": "Staphylococcus aureus", "test": "Agar plate disc-diffusion antibacterial test, Staphylococcus aureus", "settings": "Gram positive", "procedure": "as §1, §2"}, "Pseudomonas aeruginosa": {"system": "Pseudomonas aeruginosa", "test": "Agar plate disc-diffusion antibacterial test, Pseudomonas aeruginosa", "settings": "Gram negative", "procedure": "as §1, §2"}, "Bacillus cereus": {"system": "Bacillus cereus", "test": "Agar plate disc-diffusion antibacterial test, Bacillus cereus", "settings": "Gram positive", "procedure": "as §1, §2"}, "[1]": {"settings": "A = concentration of comp. = 10,000 μL"}, "[2]": {"settings": "B = concentration of comp. = 30.000 μL"}, "[3]": {"settings": "C = concentration of comp. = 50,000 μL"}}, "data": [{"smiles": "CCOc1nc(N)c(C#N)c(-c2ccc(Br)cc2)c1C#N", "note": "[Compound 3, 2-amino-4-(4-bromophenyl)-6-ethoxypyridine-3,5-dicarbonitrile]", "values": [{"measurement": "inhibition zone, Escherichia coli, A", "setting": "Escherichia coli; [1]", "result": 37, "unit": "mm"}, {"measurement": "inhibition zone, Escherichia coli, B", "setting": "Escherichia coli; [2]", "result": 40, "unit": "mm"}, {"measurement": "inhibition zone, Escherichia coli, C", "setting": "Escherichia coli; [3]", "result": 44, "unit": "mm"}, {"measurement": "inhibition zone, Staphylococcus aureus, A", "setting": "Staphylococcus aureus; [1]", "result": 19, "unit": "mm"}, {"measurement": "inhibition zone, Staphylococcus aureus, B", "setting": "Staphylococcus aureus; [2]", "result": 26, "unit": "mm"}, {"measurement": "inhibition zone, Staphylococcus aureus, C", "setting": "Staphylococcus aureus; [3]", "result": 31, "unit": "mm"}, {"measurement": "inhibition zone, Pseudomonas aeruginosa, A", "setting": "Pseudomonas aeruginosa; [1]", "result": 23, "unit": "mm"}, {"measurement": "inhibition zone, Pseudomonas aeruginosa, B", "setting": "Pseudomonas aeruginosa; [2]", "result": 33, "unit": "mm"}, {"measurement": "inhibition zone, Pseudomonas aeruginosa, C", "setting": "Pseudomonas aeruginosa; [3]", "result": 39, "unit": "mm"}, {"measurement": "inhibition zone, Bacillus Cereus, A", "setting": "Bacillus cereus; [1]", "result": 30, "unit": "mm"}, {"measurement": "inhibition zone, Bacillus Cereus, B", "setting": "Bacillus cereus; [2]", "result": 36, "unit": "mm"}, {"measurement": "inhibition zone, Bacillus Cereus, C", "setting": "Bacillus cereus; [3]", "result": 41, "unit": "mm"}]}]}
